Like-named read-outs stand apart in the source and are kept apart here.
Assays:
Atoh1 = assay: Human neural stem cell assay, Atoh1 gene expression (real-time PCR); format: cell-based; conditions: human neural stem cells, 7 point CRC, read-out: hNSC Atoh1 EC50
Experimental: (§1) Neural stem cells (NSC) were derived from embryonic stem cells using a published protocol (Yuan et al., Mar. 2, 2011, PLoS ONE, 6(3):e17540). Cells were sorted and characterized at passage 3 and were expanded. Cells were then frozen at passage 5. Cells were maintained in NSC media (DMEM/F12, N2 (1×), B27(1×) (Invitrogen), and Pen/Strep (1×) (Life Technologies) with 20 ng/ml bFGF (BD Bioscience/Corning)). On day 1, cells were plated in 96 well plates that have been previously coated with poly-ornithin and laminin, 60,000 cells/well in 100 μl of media. On day 2, spent media was removed, and 180 μl of fresh media was added to the cells. Later that same day (day 2), cells were treated with 20 μl of NSC media containing test compounds (7 point CRC). On day 3, spent media was removed and 140 μl of RLT/bME was added to the cells. RNA was extracted using the QiaCube (Qiagen®, Germantown, Md., USA) using the total RNA extraction+DNAse protocol. RNA was then reverse-transcribed to cDNA using iScript (Bio-Rad, Hercules, Calif., USA). cDNA was then used for real-time PCR analysis using iTaq Sybergreen (BioRad). Expression of Atoh1, Hes5, Hes1, Myosin7a genes was evaluated using CFX96 or CFX384 (Bio-Rad). HPRT1 was used as a reference gene. Analysis was done using Microsoft® Excel® and CBIS (ChemInnovation Software, Inc., San Diego, Calif., USA). […]

mice = assay: Auditory brainstem response (ABR) hearing threshold; format: in vivo; conditions: formulations of Examples 3(c) and 3(d) (2% w/v crystalline, poloxamer 407)
Experimental: Surgery was performed on naïve mice or mice with noise or pharmacologically-damaged ears. The animals were anesthetized with isoflurane and an 8 mm retroauricular incision was made to the lower caudal edge of the pinna. The skin was retracted and the fatty tissue was blunt dissected away from where the facial nerve and muscle come together. The muscle was retracted to reveal an area in the tympanic bulla where the bone was thin. A 30 g needle was used to drill a hole in the exposed thin portion of the otic bulla. A Hamilton syringe equipped with a 32 g blunt needle was inserted into the opening of the otic bulla. The drug formulation was delivered by injection and the needle removed. Wound closure was made with tissue glue.
Naïve mice or mice at various times after either noise or pharmacological deafening were anesthetized with ketamine/xylazine/acepromazine and the auditory brainstem response was determined in both ears using a Tucker Davis (Alachua, Fla.) RZ6 apparatus. The mice were exposed to clicks or pure tones of 4, 8, 16, 24 and 32 kHz at 90-10 dB in 10 dB descending steps and the hearing threshold was determined.

[1] = Guinea pig PK after transtympanic delivery (perilymph and cochlea, LC/MS/MS); format: in vivo; conditions: for concentration at 1 day / concentration at 7 day / concentration at 14 day / concentration at 28 day / concentration at 42 day / concentration at 56 day: male, Hartley, other: transtympanic, 30 μL, 30 μL transtympanic; for concentration at 1 day: Day 1, LLOQ = 0.08 μM; for concentration at 7 day: Day 7, LLOQ = 0.08 μM; for concentration at 14 day: Day 14, LLOQ = 0.08 μM; for concentration at 28 day: Day 28, LLOQ = 0.08 μM; for concentration at 42 day: Day 42, LLOQ = 0.08 μM; for concentration at 56 day: Day 56, LLOQ = 0.08 μM
Description: (§2) Male Hartley guinea pigs (300-350 g) were anesthetized with ketamine and xylazine. Thirty microliters of an aqueous pharmaceutical composition of the instant embodiments was delivered transtympanically to deposit the drug to the round window membrane. Delivery was unilateral. The animals were placed in a warm chamber in a lateral recumbent position keeping the dosed ear side up until they recover from anesthesia.
At various timepoints after administration, the animals were euthanized by CO2 inhalation. Blood and CSF were collected and stored at −80° C. The animals were decapitated, the temporal bones removed and the bulla opened to expose the otic capsule. Ipsilateral and contralateral perilymph were collected from the apex using a microcapillary tube. The ipsilateral cochlea was removed from the otic capsule and stored at −80° C. All tissues collected were analyzed using LC/MS/MS for test compound concentration as follows. Analytical standards were prepared by spiking known concentrations of the test compound stock solutions into matrices such as plasma or artificial CSF. Fixed amounts of tissues collected and spiked standards were precipitated with acetonitrile containing buspirone as an internal standard. The precipitated samples were centrifuged at 4000 g for 10 minutes at 4° C. The supernatants were analyzed using LC-MS/MS. The LC-MS/MS system was set up using the AB Sciex 4000 Qtrap (AB Sciex, Framingham, Mass.) equipped with Agilent 1200 series HPLC and CTC PAL Autosampler (Agilent Technologies, Santa Clara, Calif.).
Liquid compositions described herein were evaluated using the method described in Part E of the Biological Function section provided above. The liquid compositions prepared as described in Example 5(a)-5(d) were each drawn into a 1 mL syringe. Using the filled 1 mL syringe, the liquid composition was back-filled at 5° C. into a 100 μL Hamilton syringe adapted with 28 gauge needle. The Hamilton syringe was then allowed to warm to room temperature.
as §2, with “the above liquid” for “an aqueous pharmaceutical”, “were” for “of the instant embodiments was”, “The delivery” for “Delivery”, “recovered” for “recover”
At various timepoints after administration, the animals were euthanized by CO2 inhalation. Blood and cerebrospinal fluid were collected and stored at −80° C. The animals were decapitated, the temporal bones removed and the bulla were opened to expose the otic capsule. Ipsilateral and contralateral perilymph were collected from the apex using a microcapillary tube. The ipsilateral cochlea was removed from the otic capsule and was stored at −80° C. All tissues collected were analyzed using LC/MS/MS as described in Part E of the Biological Function section above.
The concentrations of Compound I and Compound II were measured using LC/MS/MS in both the perilymph fluid and the cochlea tissue after a transtympanic injection of an instant formulation of either the crystalline form or the amorphous form at various time points. […] Concentration of the instant compounds in the perilymph and/or cochlea tissue was above the human NSC EC50 for Atoh1, an indicator that the subject compounds may be efficacious in hair cell regeneration and hearing restoration in human. […] Table 3 below lists the results for the studies using aqueous formulations of crystalline Compound I while Table 4 below lists those for aqueous formulations of crystalline Compound II. The results for aqueous formulations of crystalline Compound I are also graphically shown in FIG. 5A and FIG. 5B while the results for aqueous formulations of crystalline Compound II are graphically shown in FIG. 6A and FIG. 6B.

HES5 = assay: Human neural stem cell assay, Hes5 gene expression (real-time PCR); format: cell-based; conditions: human neural stem cells, 7 point CRC, read-out: hNSC HES5 IC50
Experimental: as §1

[2] = cochlea, Amorphous form (Example 5(d)), read-out: Cochlea Average concentration
[3] = cochlea, Crystalline form (Example 5(c)), read-out: Cochlea Average concentration
[4] = perilymph, Amorphous form (Example 5(d)), read-out: perilymph Average concentration
[5] = perilymph, Crystalline form (Example 5(c)), read-out: Perilymph Average concentration

EC50 (Atoh1): 23 nM
concentration at 1 day [1, 2]: 829 µM
concentration at 7 day [1, 2]: 18.1 µM
concentration at 14 day [1, 2]: 0 µM
concentration at 28 day [1, 2]: 0 µM
concentration at 1 day [1, 3]: 5280 µM
concentration at 7 day [1, 3]: 46.1 µM
concentration at 14 day [1, 3]: 222 µM
concentration at 28 day [1, 3]: 7.6 µM
concentration at 42 day [1, 3]: 0.6 µM
concentration at 56 day [1, 3]: 0 nM
concentration at 1 day [1, 4]: 159 µM
concentration at 7 day [1, 4]: 178 µM
concentration at 14 day [1, 4]: 0 µM
concentration at 28 day [1, 4]: 0 µM
concentration at 1 day [1, 5]: 502 µM
concentration at 7 day [1, 5]: 26 µM
concentration at 14 day [1, 5]: 26 µM
concentration at 28 day [1, 5]: 2.2 µM
concentration at 42 day [1, 5]: 0.3 µM
concentration at 56 day [1, 5]: 0 nM
exposure to the inner ear, crystalline formulation versus respective amorphous formulation ([1]; transtympanic, formulations of Example 5(a)-5(d)): longer exposure
IC50 (HES5): 23 nM
Compound: CN1C(=O)[C@@H](NC(=O)[C@](C)(F)C(=O)NCC(F)(F)C(F)(F)F)c2ccccc2-c2ccccc21 [Compound II, (2R)-2-fluoro-2-methyl-N—[(S)-5-methyl-6-oxo-6,7-dihydro-5H-dibenzo[b,d]azepin-7-yl]-N′-(2,2,3,3,3-pentafluoropropyl)malonamide]
ABR Threshold Improvement (mice; 16 kHz): 8 dB
ABR Threshold Improvement (mice; 24 kHz): 11 dB
ABR Threshold Improvement (mice; 32 kHz): 7 dB
concentration in the perilymph and the cochlea compared with the human NSC EC50 for Atoh1 ([1]; dosed as the amorphous form, transtympanic): above the human NSC EC50 for Atoh1 at 1 day and 7 days
concentration in the perilymph and the cochlea compared with the human NSC EC50 for Atoh1 ([1]; dosed as the crystalline form, transtympanic): above the human NSC EC50 Atoh1 from day 1 to day 42
